Reference: patent US10617690B2 (priority 2015, dated 2020)
Read-outs that look alike come from different tables or passages of the source.

Assays:
JAK3 = molecular target: T1, JAK3 (Homo sapiens, UniProt P52333); assay: In vitro activity test of JAK3 kinase (LANCE Ultra TR-FRET); type: biochemical;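 also: recombinant human JAK3 phosphorylating ULight-JAK-1(Tyr1023) peptide at 4 µM ATP, with 1% DMSO, detected by Eu-anti-phosphotyrosine TR-FRET on Envision and converted to percent inhibition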
T1 construct: purchased Life technology
T1 sequence (P52333 1-1124): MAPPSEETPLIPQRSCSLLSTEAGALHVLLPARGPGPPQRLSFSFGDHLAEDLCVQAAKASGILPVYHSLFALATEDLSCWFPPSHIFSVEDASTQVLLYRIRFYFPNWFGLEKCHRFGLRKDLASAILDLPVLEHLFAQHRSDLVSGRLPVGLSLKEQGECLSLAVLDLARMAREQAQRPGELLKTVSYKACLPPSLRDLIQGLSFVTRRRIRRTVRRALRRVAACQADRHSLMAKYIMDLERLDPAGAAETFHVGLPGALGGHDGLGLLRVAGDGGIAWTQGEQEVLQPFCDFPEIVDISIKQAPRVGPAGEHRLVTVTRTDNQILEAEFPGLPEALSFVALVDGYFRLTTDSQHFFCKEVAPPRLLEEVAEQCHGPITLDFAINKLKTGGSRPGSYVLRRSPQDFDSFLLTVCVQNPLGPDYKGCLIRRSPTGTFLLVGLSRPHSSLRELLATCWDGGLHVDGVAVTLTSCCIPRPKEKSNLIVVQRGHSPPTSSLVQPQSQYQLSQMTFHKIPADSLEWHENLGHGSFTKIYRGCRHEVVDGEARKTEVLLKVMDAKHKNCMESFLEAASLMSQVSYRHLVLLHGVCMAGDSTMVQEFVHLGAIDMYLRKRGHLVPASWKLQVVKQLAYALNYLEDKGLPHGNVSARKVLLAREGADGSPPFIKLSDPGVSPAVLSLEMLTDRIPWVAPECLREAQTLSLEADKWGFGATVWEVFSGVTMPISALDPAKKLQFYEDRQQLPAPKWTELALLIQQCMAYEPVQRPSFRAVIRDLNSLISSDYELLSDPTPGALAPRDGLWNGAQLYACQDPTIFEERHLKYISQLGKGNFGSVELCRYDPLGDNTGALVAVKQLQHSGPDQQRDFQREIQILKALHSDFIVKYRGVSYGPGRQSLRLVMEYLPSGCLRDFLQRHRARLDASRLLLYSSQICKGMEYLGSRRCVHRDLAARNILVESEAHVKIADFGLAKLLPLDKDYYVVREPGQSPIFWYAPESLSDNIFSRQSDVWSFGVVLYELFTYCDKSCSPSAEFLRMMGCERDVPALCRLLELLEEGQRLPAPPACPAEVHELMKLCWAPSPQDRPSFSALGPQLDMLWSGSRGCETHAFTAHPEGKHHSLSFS
Method: (§1) Recombinant humanized JAK1, JAK2 and JAK3 protease were all purchased from Life technology. LANCE Ultra ULight™-JAK-1(Tyr1023) peptide and LANCE Eu-W1024 Anti-phosphotyrosine (PT66) were both purchased from PerkinElmer. Envision (PerkinElmer) was used to read a plate.
0.05 nM protein kinase, 50 nM LANCE Ultra ULight™-JAK-1(Tyr1023) peptide, 4 uM ATP, 50 mM HEPES (pH7.5), 10 mM MgCl2, 1 mM EGTA, 2 mM DTT, and 0.01% BRIJ-35.
(§2) The reading was converted into a suppression ratio as follow equation: (%)=(Min−Ratio)/(Max−Min)*100%.

[1] = Pharmacokinetics (PK) test in mice; type: in vivo, male DBA/1 mice; conditions: for AUC(0-inf) / AUC(0-t) / half-life / Vd / Cmax / Tmax / bioavailability: male, DBA/1, mouse, plasma; for half-life: caudal vein injection and gavage; for Vd: read-out: Vdss; for Cmax / Tmax / bioavailability: oral
JAK2 protein kinase = JAK2 protein kinase (Homo sapiens, UniProt O60674); assay: biochemical; conditions: 12 uM ATP, 60 min;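 also: recombinant human JAK2 with ULight-labelled JAK-1(Tyr1023) peptide substrate, phosphorylation detected by TR-FRET using Eu-labelled anti-phosphotyrosine antibody, 1% DMSO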
Sequence of JAK2 protein kinase (O60674 whole entry): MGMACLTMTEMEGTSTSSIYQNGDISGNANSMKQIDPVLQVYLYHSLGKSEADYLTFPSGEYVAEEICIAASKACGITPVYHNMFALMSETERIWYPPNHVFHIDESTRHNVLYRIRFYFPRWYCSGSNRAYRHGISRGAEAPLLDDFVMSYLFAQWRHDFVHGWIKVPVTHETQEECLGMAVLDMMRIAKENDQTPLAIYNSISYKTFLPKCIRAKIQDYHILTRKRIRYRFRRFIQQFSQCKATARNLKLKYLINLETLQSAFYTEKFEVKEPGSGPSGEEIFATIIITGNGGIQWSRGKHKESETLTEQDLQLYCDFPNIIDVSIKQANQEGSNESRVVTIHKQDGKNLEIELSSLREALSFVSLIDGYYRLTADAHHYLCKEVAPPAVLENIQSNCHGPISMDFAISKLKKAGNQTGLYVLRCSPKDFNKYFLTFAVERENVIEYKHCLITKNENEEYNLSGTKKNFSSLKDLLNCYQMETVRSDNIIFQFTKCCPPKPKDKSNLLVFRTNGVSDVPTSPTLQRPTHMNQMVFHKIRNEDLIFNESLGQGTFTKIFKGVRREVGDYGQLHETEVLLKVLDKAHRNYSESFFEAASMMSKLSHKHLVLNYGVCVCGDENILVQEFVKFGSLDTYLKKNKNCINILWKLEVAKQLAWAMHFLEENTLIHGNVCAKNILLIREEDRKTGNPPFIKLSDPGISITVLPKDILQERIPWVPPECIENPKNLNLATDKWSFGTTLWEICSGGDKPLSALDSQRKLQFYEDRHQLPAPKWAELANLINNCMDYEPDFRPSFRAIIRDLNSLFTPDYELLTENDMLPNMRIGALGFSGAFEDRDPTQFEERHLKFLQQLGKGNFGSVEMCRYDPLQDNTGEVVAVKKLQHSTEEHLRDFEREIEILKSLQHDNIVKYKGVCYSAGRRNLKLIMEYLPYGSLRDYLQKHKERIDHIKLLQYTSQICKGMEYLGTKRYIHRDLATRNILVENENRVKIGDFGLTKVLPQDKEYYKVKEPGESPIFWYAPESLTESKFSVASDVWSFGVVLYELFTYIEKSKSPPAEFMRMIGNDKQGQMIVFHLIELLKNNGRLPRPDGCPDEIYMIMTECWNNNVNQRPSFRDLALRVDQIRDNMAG
Excerpt: as §1, §2

[2] = Pharmacokinetics (PK) test in rats; type: in vivo; conditions: for AUC(0-inf) / AUC(0-t) / half-life / Vd / Cmax / Tmax / bioavailability: rat, plasma; for Vd: intravenous, read-out: Vdss; for Cmax / Tmax / bioavailability: oral
JAK1 protein kinase = JAK1 protein kinase (Homo sapiens, UniProt P23458); assay: biochemical; conditions: 38 uM ATP, 90 min
Sequence of JAK1 protein kinase (P23458 whole entry): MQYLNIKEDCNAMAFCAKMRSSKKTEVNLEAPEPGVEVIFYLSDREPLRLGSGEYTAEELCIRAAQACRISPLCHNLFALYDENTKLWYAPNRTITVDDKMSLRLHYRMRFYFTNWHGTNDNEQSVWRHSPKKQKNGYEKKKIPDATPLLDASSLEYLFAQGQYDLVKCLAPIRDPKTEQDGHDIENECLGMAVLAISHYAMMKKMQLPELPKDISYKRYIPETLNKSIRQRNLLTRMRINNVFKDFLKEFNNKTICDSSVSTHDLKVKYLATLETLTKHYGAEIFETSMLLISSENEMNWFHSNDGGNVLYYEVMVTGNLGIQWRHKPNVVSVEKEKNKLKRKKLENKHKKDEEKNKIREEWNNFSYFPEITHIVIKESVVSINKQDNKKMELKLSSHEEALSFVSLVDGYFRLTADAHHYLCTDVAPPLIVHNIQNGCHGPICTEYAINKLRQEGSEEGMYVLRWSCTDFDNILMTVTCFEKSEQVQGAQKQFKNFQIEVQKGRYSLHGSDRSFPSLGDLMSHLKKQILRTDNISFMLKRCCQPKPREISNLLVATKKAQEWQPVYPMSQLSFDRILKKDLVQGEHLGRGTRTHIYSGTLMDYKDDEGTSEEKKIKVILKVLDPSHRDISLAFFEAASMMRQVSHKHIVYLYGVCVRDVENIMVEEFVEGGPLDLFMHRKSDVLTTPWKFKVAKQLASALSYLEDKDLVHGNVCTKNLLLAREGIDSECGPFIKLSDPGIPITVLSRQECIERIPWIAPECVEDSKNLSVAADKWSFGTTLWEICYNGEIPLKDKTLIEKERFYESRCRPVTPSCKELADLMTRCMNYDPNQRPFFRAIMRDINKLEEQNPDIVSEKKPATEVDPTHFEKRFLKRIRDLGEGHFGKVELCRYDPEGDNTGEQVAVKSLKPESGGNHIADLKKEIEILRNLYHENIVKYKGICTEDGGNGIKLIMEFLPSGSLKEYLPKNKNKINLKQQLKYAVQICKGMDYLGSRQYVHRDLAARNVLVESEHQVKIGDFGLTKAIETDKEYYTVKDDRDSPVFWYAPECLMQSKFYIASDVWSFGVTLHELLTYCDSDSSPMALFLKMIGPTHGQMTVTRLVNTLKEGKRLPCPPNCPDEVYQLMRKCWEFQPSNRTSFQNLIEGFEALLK
Method: In Vitro Activity Test of Jak1, Jak 2 and Jak 3 Kinase
Recombinant humanized JAK1, JAK2 and JAK3 […] were all purchased from Life technology. LANCE Ultra ULight™-JAK-1(Tyr1023) peptide and LANCE Eu-W1024 Anti-phosphotyrosine (PT66) were both purchased from PerkinElmer. Envision (PerkinElmer) was used to read a plate.
Three dilution of a test compound was prepared, and 11 final concentrations were obtained: 10 uM to 0.17 nM. Each concentration had two repeat wells. The content of DMSO in a detection reaction was 1%.
2 nM JAK1 protein kinase, 50 nM LANCE Ultra ULight™-JAK-1(Tyr1023) peptide, 38 uM ATP, 50 mM HEPES (pH7.5), 10 mM MgCl2, 1 mM EGTA, 2 mM DTT, and 0.01% BRIJ-35. Detection plate was White Proxiplate 384-Plus plate (PerkinElmer), the reaction was conducted for 90 min at room temperature, and reaction system was 10 ul.
10 ul detection reagent was added into the reaction plate, wherein the final concentration of LANCE Eu-W1024 Anti-phosphotyrosine (PT66) was 2 nM, the final concentration of EDTA was 10 mM, incubation was conducted for 60 min at room temperature, and the plate was read by the Envision.
The reading was converted into a suppression ratio as follow equation: (%)=([…])/(Max−Min)*100%. IC50 data was detected by 4 parametric curve fitting (Model 205 in XLFIT5, iDBS), see Table 1.

[3] = tested on: arthritis model induced by collagen; conditions: oral, two consecutive weeks
[4] = tested on: arthritis model induced by adjuvant; assay: Pharmacodynamic test of an arthritis model induced by adjuvant on rats; type: in vivo, female Lewis rat; conditions: oral; for AUC (%): two consecutive weeks; for arthritis inhibitory activity and dose-effect relationship: 1, 3 and 10 mpk

CN(c1ncnc2[nH]ccc12)N1CCC[C@@H](C(=O)NCC(F)(F)F)C1 (single isomer, unassigned) [WX05, (R or S)-1-[methyl(7H pyrrolo[2,3-d]pyrimidin-4-yl)amino]-N-(2,2,2-trifluoroethyl)piperidyl-3-formamide]
IC50 (JAK3): < 0.01 µM | C1 [1]: 57.2 mL/min/kg | oral bioavailability and exposed quantity [1]: excellent good oral bioavailability and higher exposed quantity | AUC(0-inf) [1]: 0.667 µM·h | AUC(0-t) [1]: 0.664 µM·h | half-life ([1]; intravenous): 30.9 min | Vd ([1]; intravenous): 0.959 L/kg | Cmax [1]: 1230 nM | Tmax [1]: 15 min | bioavailability [1]: 27% | IC50 (JAK2 protein kinase): 0.01 to 0.1 µM | C1 [2]: 13.1 mL/min/kg | oral bioavailability and exposed quantity [2]: excellent good oral bioavailability and higher exposed quantity | AUC(0-inf) [2]: 11.5 µM·h | AUC(0-t) [2]: 11.2 µM·h | half-life [2]: 91.8 min | Vd [2]: 1.49 L/kg | Cmax [2]: 3690 nM | Tmax [2]: 60 min | bioavailability [2]: 64.4% | IC50 (JAK1 protein kinase): < 0.01 µM | AUC (%) ([3]; 15 mg/kg): 31%

CN(c1ncnc2[nH]ccc12)N1CCCC(C(=O)NCC(F)(F)F)C1 (single isomer, unassigned) [WX06, (S or R)-1-[methyl(7H pyrrolo[2,3-d]pyrimidin-4-yl)amino]-N-(2,2,2-trifluoroethyl)piperidyl-3-formamide]
IC50 (JAK3): > 1 µM | IC50 (JAK2 protein kinase): > 1 µM | IC50 (JAK1 protein kinase): 0.1 to 1 µM | AUC (%) ([3]; 15 mg/kg): 30.3%

CN(c1ncnc2[nH]ccc12)N1CCC[C@@H](C(=O)NCC#N)C1 (single isomer, unassigned) [WX08, (R or S)—N-(cyanomethyl-1-[methyl(7H-pyrrolo[2,3-d]pyrimidin-4-yl)amino]piperidyl)-3-formamide]
IC50 (JAK3): < 0.01 µM | C1 [1]: 26.7 mL/min/kg | oral bioavailability and exposed quantity [1]: excellent good oral bioavailability and higher exposed quantity | AUC(0-inf) [1]: 3.03 µM·h | AUC(0-t) [1]: 3 µM·h | Vd ([1]; intravenous): 0.619 L/kg | Cmax [1]: 2440 nM | Tmax [1]: 15 min | bioavailability [1]: 50.7% | half-life ([1]; po): 37.4 min | AUC (%) ([4]; 1 mg/kg): 13.6% | AUC (%) ([4]; 3 mg/kg): 33.4% | AUC (%) ([4]; 10 mg/kg): 49.2% | arthritis inhibitory activity and dose-effect relationship [4]: good dose-effect relationship and generated arthritis inhibitory activity that was more effective than Filgotinib | IC50 (JAK2 protein kinase): < 0.01 µM | C1 [2]: 27.1 mL/min/kg | oral bioavailability and exposed quantity [2]: excellent good oral bioavailability and higher exposed quantity | AUC(0-inf) [2]: 6.5 µM·h | AUC(0-t) [2]: 6.36 µM·h | half-life [2]: 56.9 min | Vd [2]: 1.51 L/kg | Cmax [2]: 2460 nM | Tmax [2]: 30 min | bioavailability [2]: 61% | IC50 (JAK1 protein kinase): < 0.01 µM

O=C(Nc1nc2cccc(-c3ccc(CN4CCS(=O)(=O)CC4)cc3)n2n1)C1CC1 [Filgotinib, reference compound]
AUC (%) ([4]; 3 mg/kg): 7.9% | AUC (%) ([3]; 15 mg/kg): 39.9%

C[C@@H]1CCN(C(=O)CC#N)C[C@@H]1N(C)c1ncnc2[nH]ccc12 [Tofacitinib, reference compound]
AUC (%) ([4]; 1 mg/kg): 19.8% | AUC (%) ([4]; 3 mg/kg): 41.6% | AUC (%) ([4]; 10 mg/kg): 49.2% | AUC (%) ([3]; 15 mg/kg): 34%

CN(c1ncnc2[nH]ccc12)N1CCCC(C(=O)NCC(F)(F)F)C1 (stereo not shown) [WX04]
IC50 (JAK3): 0.01 to 0.1 µM | IC50 (JAK2 protein kinase): 0.01 to 0.1 µM | IC50 (JAK1 protein kinase): < 0.01 µM | AUC (%) ([3]; 15 mg/kg): 29% | AUC (%) ([3]; 30 mg/kg): 27%

CN(c1ncnc2[nH]ccc12)N1CCCC(C(=O)NCC#N)C1 (stereo not shown) [WX07, N-(cyanomethyl)-1-[methyl(7H-pyrrolo[2,3-d]pyrimidin-4-yl)amino]piperidyl-3-formamide]
IC50 (JAK3): < 0.01 µM | C1 [1]: 21.3 mL/min/kg | oral bioavailability and exposed quantity [1]: excellent good oral bioavailability and higher exposed quantity | AUC(0-inf) [1]: 2.48 µM·h | AUC(0-t) [1]: 2.33 µM·h | Vd ([1]; intravenous): 0.846 L/kg | Cmax [1]: 2290 nM | Tmax [1]: 30 min | bioavailability [1]: 32.9% | half-life ([1]; po): 81 min | AUC (%) ([4]; 1 mg/kg): 1.5% | AUC (%) ([4]; 3 mg/kg): 20.4% | AUC (%) ([4]; 10 mg/kg): 44.7% | arthritis inhibitory activity and dose-effect relationship [4]: good dose-effect relationship and arthritis inhibitory activity equivalent to Tofacitinib | IC50 (JAK2 protein kinase): 0.01 to 0.1 µM | C1 [2]: 31.8 mL/min/kg | oral bioavailability and exposed quantity [2]: excellent good oral bioavailability and higher exposed quantity | AUC(0-inf) [2]: 5.75 µM·h | AUC(0-t) [2]: 5.68 µM·h | half-life [2]: 70.8 min | Vd [2]: 1.76 L/kg | Cmax [2]: 3250 nM | Tmax [2]: 20 min | bioavailability [2]: 68.6% | IC50 (JAK1 protein kinase): < 0.01 µM | AUC (%) ([3]; 15 mg/kg): 52.2%
